Legend:
BA/F3 (insSVD) cells = test: Ba/F3 cell survival assay (Cell Titer-Glo), EGFR-insSVD; format: cell-based; conditions: Mus musculus, BaF3, 48 h, without IL-3, with EGF
In short: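 Viability read by CellTiter-Glo luminescence after 48 h compound exposure at 37° C, 4000 cells/well. Retrovirally transduced, puromycin-selected Ba/F3 lines carrying EGFR-insSVD ± T790M grew IL-3-free with 10 ng/mL EGF for 2 days beforehand; compound delivered by 100 nL pin.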

[1] = biological target: mutEGFR (D770_N771insSVD) (Homo sapiens, UniProt P00533, INS767SVD); test: Exon20-mutant-EGFR (D770_N771insSVD) TR-FRET kinase assay; format: biochemical; conditions: 2 mM ATP, 15 min preincubation
In short: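 GST-fused human EGFR fragment R669-A1210 carrying the SVD insertion, Sf9-expressed, typically 15 pg/μl, was preincubated with compound for 15 min at 22° C in pH 7.0 Hepes/MgCl2 buffer. Phosphorylation was read by HTRF (665/620 nm ratio), normalised to no-inhibitor and no-enzyme controls.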

[2] = biological target: mutEGFR (D770_N771insNPG, T790); test: mutEGFR (D770_N771insNPG, T790) kinase assay; format: biochemical, human
Sequence of mutEGFR (D770_N771insNPG, T790) (P00533 with tags, fused parts or gaps INS770NPG limits assumed): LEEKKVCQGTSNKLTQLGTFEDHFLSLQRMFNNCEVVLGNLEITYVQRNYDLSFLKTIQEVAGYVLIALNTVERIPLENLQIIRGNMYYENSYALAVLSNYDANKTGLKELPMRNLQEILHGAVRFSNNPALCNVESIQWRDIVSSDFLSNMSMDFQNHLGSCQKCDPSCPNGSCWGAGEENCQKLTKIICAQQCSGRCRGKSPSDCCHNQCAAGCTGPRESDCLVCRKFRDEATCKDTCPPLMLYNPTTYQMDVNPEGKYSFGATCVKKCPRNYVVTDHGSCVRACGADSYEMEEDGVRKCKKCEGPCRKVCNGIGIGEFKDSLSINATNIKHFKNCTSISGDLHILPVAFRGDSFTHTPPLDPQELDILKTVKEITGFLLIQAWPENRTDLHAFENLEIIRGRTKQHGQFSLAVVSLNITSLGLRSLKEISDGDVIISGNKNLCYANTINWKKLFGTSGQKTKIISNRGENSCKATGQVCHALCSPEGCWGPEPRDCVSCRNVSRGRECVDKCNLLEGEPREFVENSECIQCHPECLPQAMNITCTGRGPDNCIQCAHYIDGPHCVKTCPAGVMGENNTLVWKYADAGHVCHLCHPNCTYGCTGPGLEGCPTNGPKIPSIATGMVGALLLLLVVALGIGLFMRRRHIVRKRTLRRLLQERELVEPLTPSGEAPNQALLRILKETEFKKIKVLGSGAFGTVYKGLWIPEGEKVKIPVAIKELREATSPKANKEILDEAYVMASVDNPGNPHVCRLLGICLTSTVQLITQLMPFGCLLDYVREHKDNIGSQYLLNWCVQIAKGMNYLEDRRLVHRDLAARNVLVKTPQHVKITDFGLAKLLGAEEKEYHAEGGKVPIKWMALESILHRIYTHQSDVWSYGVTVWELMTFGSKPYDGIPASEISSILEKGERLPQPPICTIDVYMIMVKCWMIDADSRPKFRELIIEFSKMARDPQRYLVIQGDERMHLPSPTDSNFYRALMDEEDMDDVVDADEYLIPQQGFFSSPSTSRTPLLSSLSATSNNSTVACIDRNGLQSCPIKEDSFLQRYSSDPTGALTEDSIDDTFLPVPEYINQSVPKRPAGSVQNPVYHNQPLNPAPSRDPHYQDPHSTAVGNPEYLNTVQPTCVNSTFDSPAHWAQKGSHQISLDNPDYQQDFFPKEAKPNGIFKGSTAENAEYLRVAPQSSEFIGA

Sequence of mutEGFR (D770_N771insSVD) (P00533 with tags, fused parts or gaps INS767SVD limits assumed): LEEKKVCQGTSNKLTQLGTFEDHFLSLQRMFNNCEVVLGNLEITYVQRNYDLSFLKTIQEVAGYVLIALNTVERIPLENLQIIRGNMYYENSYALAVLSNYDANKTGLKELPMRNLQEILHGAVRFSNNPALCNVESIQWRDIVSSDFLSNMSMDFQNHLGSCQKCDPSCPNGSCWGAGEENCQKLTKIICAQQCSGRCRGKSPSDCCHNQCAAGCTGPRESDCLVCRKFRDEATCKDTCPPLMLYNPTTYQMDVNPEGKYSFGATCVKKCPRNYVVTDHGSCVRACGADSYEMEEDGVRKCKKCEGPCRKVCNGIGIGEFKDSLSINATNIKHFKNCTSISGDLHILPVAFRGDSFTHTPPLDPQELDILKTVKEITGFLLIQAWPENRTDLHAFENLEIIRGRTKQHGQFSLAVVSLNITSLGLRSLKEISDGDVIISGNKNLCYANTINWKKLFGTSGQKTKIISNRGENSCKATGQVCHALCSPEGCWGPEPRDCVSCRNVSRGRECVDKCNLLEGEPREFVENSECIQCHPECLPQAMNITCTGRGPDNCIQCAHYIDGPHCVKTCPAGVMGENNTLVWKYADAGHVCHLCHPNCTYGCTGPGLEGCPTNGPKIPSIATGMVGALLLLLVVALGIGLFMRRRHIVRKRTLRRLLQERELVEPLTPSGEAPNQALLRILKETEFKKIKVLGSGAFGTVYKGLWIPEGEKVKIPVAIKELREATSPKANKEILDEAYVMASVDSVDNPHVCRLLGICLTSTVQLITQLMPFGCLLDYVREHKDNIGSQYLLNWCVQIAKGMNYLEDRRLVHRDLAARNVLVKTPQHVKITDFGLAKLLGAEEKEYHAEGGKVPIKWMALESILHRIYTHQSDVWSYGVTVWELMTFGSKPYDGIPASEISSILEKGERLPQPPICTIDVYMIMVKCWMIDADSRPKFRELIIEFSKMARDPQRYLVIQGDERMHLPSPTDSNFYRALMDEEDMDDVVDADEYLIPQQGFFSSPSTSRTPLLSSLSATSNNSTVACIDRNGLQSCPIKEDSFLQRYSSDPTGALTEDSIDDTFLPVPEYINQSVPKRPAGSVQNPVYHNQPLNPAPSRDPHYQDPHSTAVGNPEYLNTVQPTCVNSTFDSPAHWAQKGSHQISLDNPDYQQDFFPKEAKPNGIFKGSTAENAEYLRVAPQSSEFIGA

Compound	IC50 (BA/F3 (insSVD) cells) [nM]	IC50 [1] [nM]	IC50 [2] [nM]
C=CC(=O)N(C)CCOc1cnccc1-c1[nH]c2cccnc2c1-c1cc(Cl)ccc1F [Example 43, N-[2-({4-[3-(5-chloro-2-fluorophenyl)-1H-pyrrolo[3,2-b]pyridin-2-yl]pyridin-3-yl}oxy)ethyl]-N-methylprop-2-enamide]	538	11.7	33.2
CN(C)C/C=C/C(=O)N1CCC[C@H]1COc1cnccc1-c1[nH]c2cccnc2c1-c1cc(Cl)ccc1F [Example 97, (2E)-1-{(2S)-2-[({4-[3-(5-chloro-2-fluorophenyl)-1H-pyrrolo[3,2-b]pyridin-2-yl]pyridin-3-yl}oxy)methyl]pyrrolidin-1-yl}-4-(dimethylamino)but-2-en-1-one]	179	2.03	8.62
C=CC(=O)N(C)C[C@H](C)Oc1cnccc1-c1[nH]c2cccnc2c1-c1ccccc1 (stereo in doubt) [Example 133, N-methyl-N-[2-{[4-(3-phenyl-1H-pyrrolo[3,2-b]pyridin-2-yl)pyridin-3-yl]oxy}propyl]prop-2-enamide]	9000	3470	5590
C=CS(=O)(=O)N(C)CCOc1cnccc1-c1[nH]c2cccnc2c1-c1cc(C)ccc1F [Example 64, N-[2-({4-[3-(2-fluoro-5-methylphenyl)-1H-pyrrolo[3,2-b]pyridin-2-yl]pyridin-3-yl}oxy)ethyl]-N-methylethenesulfonamide]	92.9	1.47	2.21
CN(C)C/C=C\C(=O)N1CCC[C@H]1COc1cnccc1-c1[nH]c2cccnc2c1-c1ccccc1 [Example 98, (2Z)-4-(dimethylamino)-1-[(2S)-2-({[4-(3-phenyl-1H-pyrrolo[3,2-b]pyridin-2-yl)pyridin-3-yl]oxy}methyl)pyrrolidin-1-yl]but-2-en-1-one]	747	14.6	59.1
C#CC(=O)N1CC[C@@H](Oc2cnccc2-c2[nH]c3cccnc3c2-c2cc(Cl)ccc2F)C1 [Example 128, 1-[(3R)-3-({4-[3-(5-chloro-2-fluorophenyl)-1H-pyrrolo[3,2-b]pyridin-2-yl]pyridin-3-yl}oxy)pyrrolidin-1-yl]prop-2-yn-1-one]	765	63	208
C#CC(=O)N1CCC[C@H]1COc1cnccc1-c1[nH]c2cccnc2c1-c1ccccc1 [Example 93, 1-[(2S)-2-({[4-(3-phenyl-1H-pyrrolo[3,2-b]pyridin-2-yl)pyridin-3-yl]oxy}methyl)pyrrolidin-1-yl]prop-2-yn-1-one]	55.3	1.02	3.14
C=CS(=O)(=O)N(C)CCOc1cnccc1-c1[nH]c2cccnc2c1-c1cccc(C(F)(F)F)c1 [Example 66, N-methyl-N-{2-[(4-{3-[3-(trifluoromethyl)phenyl]-1H-pyrrolo[3,2-b]pyridin-2-yl}pyridin-3-yl)oxy]ethyl}ethenesulfonamide]	421	2.61	6.66
C=CC(=O)N(C)CCOc1cnccc1-c1[nH]c2cccnc2c1-c1cc(C(F)(F)F)ccc1F [Example 51, N-{2-[(4-{3-[2-fluoro-5-(trifluoromethyl)phenyl]-1H-pyrrolo[3,2-b]pyridin-2-yl}pyridin-3-yl)oxy]ethyl}-N-methylprop-2-enamide]	1920	75.6	132
C=CC(=O)N1CCC[C@H]1COc1cnccc1-c1[nH]c2cccnc2c1-c1cc(C#N)ccc1F [Example 90, 4-fluoro-3-[2-(3-{[(2S)-1-(prop-2-enoyl)pyrrolidin-2-yl]methoxy}pyridin-4-yl)-1H-pyrrolo[3,2-b]pyridin-3-yl]benzonitrile]	999	34.3	62.5
C=CC(=O)N1CCC[C@H]1COc1cnccc1-c1[nH]c2cccnc2c1-c1ccccc1Cl [Example 88, 1-{(2S)-2-[({4-[3-(2-chlorophenyl)-1H-pyrrolo[3,2-b]pyridin-2-yl]pyridin-3-yl}oxy)methyl]pyrrolidin-1-yl}prop-2-en-1-one]	166	1.89	10.7

Reference: patent publication US20260035365A1, “1H-PYRROLO[3,2-B]PYRIDINE DERIVATIVES AS IRREVERSIBLE INHIBITORS OF MUTANT EGFR FOR THE TREATMENT OF CANCER” (Bayer Aktiengesellschaft, priority 2022, published 2026)
